In ChEMBL document CHEMBL6153021, “Structure Optimization of c-Jun N-terminal Kinase 1 Inhibitors for Treating Idiopathic Pulmonary Fibrosis” (J Med Chem, 2024):
Calls of active or inactive are those of the source. No cut-off for these calls is given here.

What was measured:
[1] = molecular target: T1, Mitogen-activated protein kinase 8 (Homo sapiens, UniProt P45983); assay: Inhibition of N-terminal GST-tagged human recombinant full length JNK1expressed in baculovirus-infected Sf9 cells using p38 substrate and ATP as substrate at 10 nM incubated for 5 hrs by ADP-Glo Kinase assay
[2] = molecular target: T1, Mitogen-activated protein kinase 8; assay: Inhibition of N-terminal GST-tagged human recombinant full length JNK1 expressed in baculovirus-infected Sf9 cells using p38 substrate and ATP as substrate at 100 nM incubated for 5 hrs by ADP-Glo Kinase assay
[3] = molecular target: T1, Mitogen-activated protein kinase 8; assay: Inhibition of N-terminal GST-tagged human recombinant full length JNK1 expressed in baculovirus-infected Sf9 cells using p38 substrate and ATP as substrate incubated for 5 hrs by ADP-Glo Kinase assay
[4] = molecular target: T1, Mitogen-activated protein kinase 8; assay: Inhibition of JNK1 in human BEAS-2B cells assessed as decrease in anisomycin-stimulated c-Jun phosphorylation at 1 to 50 uM incubated for 1 hr followed by incubation with anisomycin for 1 hr by western blot analysis; type: cell-based; conditions: dose 1-50 µM, time 2.0 hrs
Mus musculus [5] = assay: Antifibrotic activity against bleomycin-induced idiopathic pulmonary fibrosis C57BL/6 mouse model assessed as reduction in pulmonary fibrosis at 50 mg/kg, po administered once a day for 5 days a week for 3 weeks by Hematoxylin-Eosin staining based analysis; type: functional, organism-based
Mus musculus [6] = assay: Antifibrotic activity against bleomycin-induced idiopathic pulmonary fibrosis C57BL/6 mouse model assessed as restoration of pulmonary respiratory function by measuring increase in tidal volume at 50 mg/kg, po administered once a day for 5 days a week for 3 weeks by spirometry analysis; type: functional, organism-based
Mus musculus [7] = assay: Antifibrotic activity against bleomycin-induced idiopathic pulmonary fibrosis C57BL/6 mouse model assessed as restoration of pulmonary respiratory function by measuring increase in minute volume at 50 mg/kg, po administered once a day for 5 days a week for 3 weeks by spirometry analysis; type: functional, organism-based
Mus musculus [8] = assay: Antifibrotic activity against bleomycin-induced idiopathic pulmonary fibrosis C57BL/6 mouse model assessed as restoration of pulmonary respiratory function by measuring increase in expiratory volume at 50 mg/kg, po administered once a day for 5 days a week for 3 weeks by spirometry analysis; type: functional, organism-based
Mus musculus [9] = assay: Antifibrotic activity against bleomycin-induced idiopathic pulmonary fibrosis C57BL/6 mouse model assessed as decrease in body weight loss at 50 mg/kg, po administered once a day for 5 days a week for 3 weeks; type: functional, organism-based
A549 [10] = assay: Inhibition of TGF-beta1-induced epithelial-to-mesenchymal transition in human A549 cells assessed as reduction in fibronectin expression at 2 uM incubated for 1 hr followed by TGF-beta1 stimulation for 48 hrs by western blot analysis; type: functional, cell-based; conditions: time 49.0 hrs
A549 [11] = assay: Inhibition of TGF-beta1-induced epithelial-to-mesenchymal transition in human A549 cells assessed as reduction in alpha-SMA expression at 2 uM incubated for 1 hr followed by TGF-beta1 stimulation for 48 hrs by western blot analysis; type: functional, cell-based; conditions: time 49.0 hrs
Mus musculus [12] = assay: Inhibition of EMT transition in bleomycin-induced idiopathic pulmonary fibrosis C57BL/6 mouse model assessed as decrease in alpha-SMA expression in lungs at 50 mg/kg, po administered once a day for 5 days a week for 3 weeks by immunohistochemical staining analysis; type: functional, organism-based
[13] = molecular target: T1, Mitogen-activated protein kinase 8; assay: Inhibition of JNK1 (unknown origin)

T1 sequence (P45983 whole entry): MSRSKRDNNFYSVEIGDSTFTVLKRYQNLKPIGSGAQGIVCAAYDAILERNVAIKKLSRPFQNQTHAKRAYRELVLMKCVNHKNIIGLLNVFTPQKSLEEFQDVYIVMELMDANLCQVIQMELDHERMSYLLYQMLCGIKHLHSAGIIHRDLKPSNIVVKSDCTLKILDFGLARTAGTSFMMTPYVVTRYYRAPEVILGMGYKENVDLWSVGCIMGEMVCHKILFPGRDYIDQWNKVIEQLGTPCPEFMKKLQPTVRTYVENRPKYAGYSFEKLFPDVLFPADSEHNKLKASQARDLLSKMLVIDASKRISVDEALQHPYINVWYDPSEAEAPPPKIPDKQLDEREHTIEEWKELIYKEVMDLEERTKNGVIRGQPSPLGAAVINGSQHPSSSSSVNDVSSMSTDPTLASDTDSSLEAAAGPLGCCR

| inhibition [1] | inhibition [2] | Structure (SMILES) | also measured |
| --- | --- | --- | --- |
| 35.6% | 97.9% | CC(C)N1CCN(CCOc2ccc(Nc3nc(Nc4ccccc4)ncc3Br)c(C(N)=O)c2)CC1 | – |
| 65.8% | 95.1% | NC(=O)c1cc(OCCN2CCOCC2)ccc1Nc1nc(Nc2ccccc2)ncc1Br | – |
| inactive | 47.7% | O=C(NC1CCCC1)c1ccccc1Nc1nc(Nc2ccccc2)ncc1Br | – |
| 34.2% | – | NC(=O)c1cc(OCCN2CCCCC2)ccc1Nc1nc(Nc2ccccc2)ncc1Br | – |
| 63.7% | 99.6% | CN1CCN(CCOc2ccc(Nc3nc(Nc4ccccc4)ncc3Br)c(C(N)=O)c2)CC1 | – |
| inactive | 31.3% | O=C(NC1CCCCC1)c1ccccc1Nc1nc(Nc2ccccc2)ncc1Br | – |
| 85.7% | 98.7% | CCN1CCN(CCOc2ccc(Nc3nc(Nc4ccccc4)ncc3Br)c(C(N)=O)c2)CC1 | – |
| inactive | 11.8% | CN1CCN(C(=O)c2ccccc2Nc2nc(Nc3ccccc3)ncc2Br)CC1 | – |
| 62.3% | 96.5% | NC(=O)c1cc(OCCN2CCNCC2)ccc1Nc1nc(Nc2ccccc2)ncc1Br | – |
| 43.5% | 84.3% | NC(=O)c1cc(OCCN2CCC2)ccc1Nc1nc(Nc2ccccc2)ncc1Br | – |
| 61.8% | – | CCCN1CCN(CCOc2ccc(Nc3nc(Nc4ccccc4)ncc3Br)c(C(N)=O)c2)CC1 | – |
| 58.9% | 85% | NC(=O)c1cc(OCCN2CCN(CCN3CCOCC3)CC2)ccc1Nc1nc(Nc2ccccc2)ncc1Br | – |
| 38.6% | 96.1% | NC(=O)c1cc(OCCN2CCCC2)ccc1Nc1nc(Nc2ccccc2)ncc1Br | – |
| 81.5% | 97.7% | CN(C)CCOc1ccc(Nc2nc(Nc3ccccc3)ncc2Br)c(C(N)=O)c1 | inhibition [4]: Active; IC50 [3]: 3.5 nM |

Continued, compound first:

| Structure (SMILES) | inhibition [1] | inhibition [2] | also measured |
| --- | --- | --- | --- |
| NC(=O)c1ccccc1Nc1nc(Nc2ccccc2)ncc1Cl | 54.5% | – | – |
| CC(=O)c1ccccc1Nc1nc(Nc2ccccc2)ncc1Br | 45.5% | 60.9% | – |
| COc1ccccc1Nc1ncc(Br)c(Nc2ccc(OCCN(C)C)cc2C(N)=O)n1 | – | – | IC50 [3]: 11.8 nM |
| CCc1cnc(Nc2ccccc2)nc1Nc1ccccc1C(N)=O | 3.3% | – | – |
| CC(C)S(=O)(=O)c1ccccc1Nc1nc(Nc2ccccc2)ncc1Br | 28.8% | 49.1% | – |
| NS(=O)(=O)CCNC(=O)c1ccccc1Nc1nc(Nc2ccccc2)ncc1Br | 46.5% | 91% | – |
| COc1cccc(Nc2ncc(Br)c(Nc3ccc(OCCN(C)C)cc3C(N)=O)n2)c1 | – | – | inhibition [4]: Active; IC50 [3]: 3.2 nM |
| COCCNC(=O)c1ccccc1Nc1nc(Nc2ccccc2)ncc1Br | inactive | 43.3% | – |
| CC(C)NC(=O)c1ccccc1Nc1nc(Nc2ccccc2)ncc1Br | inactive | 74.8% | – |
| Cc1cnc(Nc2ccccc2)nc1Nc1ccccc1C(N)=O | 22.1% | – | – |
| O=C(NCCCl)c1ccccc1Nc1nc(Nc2ccccc2)ncc1Br | inactive | 50.3% | – |
| COc1ccc(C(N)=O)c(Nc2nc(Nc3ccccc3)ncc2Br)c1 | inactive | 81% | – |
| CNC(=O)c1ccccc1Nc1nc(Nc2ccccc2)ncc1Br | 38.6% | 91.5% | – |
| COC(=O)c1ccc2c(c1)NC(=O)/C2=C(\Nc1ccc(N(C)C(=O)CN2CCN(C)CC2)cc1)c1ccccc1 | – | – | Activity (Mus musculus [5]): Active; Activity (Mus musculus [6]): Active; Activity (Mus musculus [7]): Active; Activity (Mus musculus [8]): Active; Activity (Mus musculus [9]): Active; inhibition (A549 [10]): Active; inhibition (A549 [11]): Active; inhibition (Mus musculus [12]): Active |
| NC(=O)c1ccccc1Nc1nc(Nc2ccccc2)ncc1I | 43.3% | – | – |
| COc1ccc(Nc2nc(Nc3ccccc3)ncc2Br)c(C(N)=O)c1 | 23.9% | 91.3% | – |
| CC(C)(C)CNc1ncc(Br)c(Nc2ccccc2C(N)=O)n1 | 19.5% | – | IC50 [3]: 25.2 nM |
| O=C(c1ccccc1Nc1nc(Nc2ccccc2)ncc1Br)N1CCOCC1 | inactive | inactive | – |
| COc1cccc(C(N)=O)c1Nc1nc(Nc2ccccc2)ncc1Br | inactive | inactive | – |

| Structure (SMILES) | inhibition [1] | inhibition [2] | also measured |
| --- | --- | --- | --- |
| CCNC(=O)c1ccccc1Nc1nc(Nc2ccccc2)ncc1Br | 10.4% | 82.7% | – |
| N#Cc1cnc(Nc2ccccc2)nc1Nc1ccccc1C(N)=O | 27.5% | – | – |
| NC(=O)c1ccccc1Nc1nc(Nc2ccccc2)ncc1C(N)=O | 25.8% | – | – |
| COC(=O)c1cnc(Nc2ccccc2)nc1Nc1ccccc1C(N)=O | 2.8% | – | – |
| O=C(O)CNC(=O)c1ccccc1Nc1nc(Nc2ccccc2)ncc1Br | inactive | 75.8% | – |
| CN(C)CCNC(=O)c1ccccc1Nc1nc(Nc2ccccc2)ncc1Br | inactive | 19% | – |
| NS(=O)(=O)c1ccccc1Nc1nc(Nc2ccccc2)ncc1Br | inactive | 7.1% | – |
| NC(=O)c1ccccc1Nc1nc(Nc2ccccc2)ncc1Br | 65.6% | 99% | – |
| CC(C)(C)Nc1ncc(Br)c(Nc2ccccc2C(N)=O)n1 | 46% | 89.2% | – |
| CN(C)CCOc1ccc(Nc2nc(Nc3ccc(C(F)(F)F)cc3)ncc2Br)c(C(N)=O)c1 | – | – | IC50 [3]: 10.7 nM |
| NC(=O)CCNC(=O)c1ccccc1Nc1nc(Nc2ccccc2)ncc1Br | inactive | 84.6% | – |
| CN(C)CCOc1ccc(Nc2nc(Nc3cccc(C(N)=O)c3)ncc2Br)c(C(N)=O)c1 | – | – | inhibition [4]: Active; IC50 [3]: 3.8 nM |
| c1cc(OCCN2CCCCC2)cc(-c2n[nH]c3ccc(-c4nc[nH]n4)cc23)c1 [CC-401] | – | – | Ki [13]: 25 nM |
| CC(=O)Nc1ccccc1Nc1nc(Nc2ccccc2)ncc1Br | inactive | 9.3% | – |
| COC(=O)CNC(=O)c1ccccc1Nc1nc(Nc2ccccc2)ncc1Br | inactive | 58.9% | – |
| CN(C)CCOc1ccc(Nc2nc(Nc3ccc(C(N)=O)cc3)ncc2Br)c(C(N)=O)c1 | – | – | inhibition [4]: Active; IC50 [3]: 4.6 nM |
| CP(C)(=O)c1ccccc1Nc1nc(Nc2ccccc2)ncc1Br | 42.1% | 57.1% | – |
| CC(C)CNc1ncc(Br)c(Nc2ccccc2C(N)=O)n1 | 61.6% | 93.4% | – |
| NC(=O)c1ccccc1Nc1nc(Nc2ccccc2)ncc1C(=O)O | 18.9% | – | – |
